# Laboratory results as given in publication PMC9586938, “Picomolar fluorescent probes for compound affinity determination to carbonic anhydrase IX expressed in live cancer cells” (Scientific Reports, 2022).
# Experiments:
# CAXII = molecular target: T1, CAXII (Homo sapiens, UniProt O43570); assay: Thermal shift assay (TSA), recombinant CAXII; type: binding; conditions: 37 °C, pH 7.0, observed (not intrinsic)
# T1 construct: Isozymes CAIX, CAXII, and CAXIV were the catalytic domains of the proteins; made in house; host or cells: E. coli
# Protocol: (§1) The binding affinities of all fluorescein-containing compounds were determined for all 12 catalytically active CA isozymes by the thermal shift assay (TSA). […] However, the SFA technique cannot determine the affinities lower than the enzyme concentration used in the assay. […] In addition, we used isothermal titration calorimetry (ITC), the standard assay to determine affinity and enthalpy of protein–ligand binding. […] Therefore, ITC was used only to determine the enthalpy of interaction and confirm the ordering of compound affinities.
# (§2) All twelve catalytically active human CA isozymes were prepared recombinantly as previously described. Isozymes CAIX, CAXII, and CAXIV were the catalytic domains of the proteins[14],[38]. All isozymes were expressed in E. coli except CAIX that has been prepared in mammalian cells. The proteins were chromatographically purified on ion-exchange or benzene sulfonamide containing affinity columns. Protein MW was confirmed by mass spectrometry with 1 Da precision as predicted from gene sequence.
# (§3) Compound affinities for the twelve catalytically active CA isozymes were determined by the thermal shift assay as previously described[30],[39]. Protein solutions containing 1,8-anilinonaphthalenesulfonate fluorescent probe were heated from 25 to 100 °C at a rate of one degree per minute while following the fluorescence of the probe. The temperature scanning curves provided the melting temperature Tm of the protein. The Tm has a distinct dependence on the concentration of a compound. Stronger binders shift the Tm to a greater extent than the weak binders. The Tm dependencies on compound concentration were fit to obtain the affinity Kd[40].
# CAVA = molecular target: T2, CAVA (Homo sapiens, UniProt P35218); assay: Thermal shift assay (TSA), recombinant CAVA; type: binding; conditions: 37 °C, pH 7.0, observed (not intrinsic)
# T2 construct: made in house; host or cells: E. coli
# Protocol: as §1, §2, §3
# CAI = molecular target: T3, CAI (Homo sapiens, UniProt P00915); assay: Thermal shift assay (TSA), recombinant CAI; type: binding; conditions: 37 °C, pH 7.0, observed (not intrinsic)
# T3 construct: made in house; host or cells: E. coli
# CAIII = molecular target: T4, CAIII (Homo sapiens, UniProt P07451); assay: Thermal shift assay (TSA), recombinant CAIII; type: binding; conditions: 37 °C, pH 7.0, observed (not intrinsic)
# T4 construct: made in house; host or cells: E. coli
# Protocol: as §1, §2, §3
# CAXIV = molecular target: T5, CAXIV (Homo sapiens, UniProt Q9ULX7); assay: Thermal shift assay (TSA), recombinant CAXIV; type: binding; conditions: 37 °C, pH 7.0, observed (not intrinsic)
# T5 construct: Isozymes CAIX, CAXII, and CAXIV were the catalytic domains of the proteins; made in house; host or cells: E. coli
# CAIV = molecular target: T6, CAIV (Homo sapiens, UniProt P22748); assay: Thermal shift assay (TSA), recombinant CAIV; type: binding; conditions: 37 °C, pH 7.0, observed (not intrinsic)
# T6 construct: made in house; host or cells: E. coli
# [1] = molecular target: T7, catalytic domain of recombinant human CAIX (Homo sapiens, UniProt Q16790); assay: Thermal shift assay (TSA), recombinant CAIX catalytic domain; type: binding; conditions: for Kd: TSA, 37 °C, pH 7.0, observed (not intrinsic), read-out: Kd CAIX
# T7 construct: Isozymes CAIX, CAXII, and CAXIV were the catalytic domains of the proteins; made in house; host or cells: mammalian cells
# CAVI = molecular target: T8, CAVI (Homo sapiens, UniProt P23280); assay: Thermal shift assay (TSA), recombinant CAVI; type: binding; conditions: 37 °C, pH 7.0, observed (not intrinsic)
# T8 construct: made in house; host or cells: E. coli
# Protocol: as §1, §2, §3
# CAXIII = molecular target: T9, CAXIII (Homo sapiens, UniProt Q8N1Q1); assay: Thermal shift assay (TSA), recombinant CAXIII; type: binding; conditions: 37 °C, pH 7.0, observed (not intrinsic)
# T9 construct: made in house; host or cells: E. coli
# CAVII = molecular target: T10, CAVII (Homo sapiens, UniProt P43166); assay: Thermal shift assay (TSA), recombinant CAVII; type: binding; conditions: 37 °C, pH 7.0, observed (not intrinsic)
# T10 construct: made in house; host or cells: E. coli
# CAVB = molecular target: T11, CAVB (Homo sapiens, UniProt Q9Y2D0); assay: Thermal shift assay (TSA), recombinant CAVB; type: binding; conditions: 37 °C, pH 7.0, observed (not intrinsic)
# T11 construct: made in house; host or cells: E. coli
# CAII = molecular target: T12, CAII (Homo sapiens, UniProt P00918); assay: Thermal shift assay (TSA), recombinant CAII; type: binding; conditions: 37 °C, pH 7.0, observed (not intrinsic)
# T12 construct: made in house; host or cells: E. coli
# Protocol: as §1, §2, §3
# [2] = molecular target: CAIX expressed on live A549 cells (Homo sapiens, UniProt Q16790); assay: Competition of unlabeled compound with 10 nM GZ19-32 on hypoxic A549 cells (competitive binding model); conditions: ratio of KdA
# [3] = molecular target: T13, CAIX expressed on HeLa cells (Homo sapiens, UniProt Q16790); assay: Fluorescein-labeled compound dosing to hypoxia-grown WT HeLa cells (Morrison single-site model); type: cell-based; conditions: same conditions as GZ19-32, up to about 100 nM
# T13 construct: recombinant CAIX and endogenous CAIX expressed on the cell surface; endogenous in cells; host or cells: HeLa (WT), grown under hypoxia (1% O2)
# Protocol: (§4) HeLa cell culture was grown in 12-well plates, either under hypoxia (1% O2) or under normoxia (21% O2), for 70 to 76 h. The medium was removed. Then 200 µL of serially diluted compound (twelve twofold steps) in the FB medium, usually starting at 80 nM (80, 40, 20, …, 0 nM), was added and incubated at 37 ℃ under normoxia in the CO2 incubator for 20 min (2 or 5 min in some experiments where specified). Then the compound solution was removed and the cells were washed 3 times for 1.5–2 min with 400 µL of PBS at RT. Then 180 µL of TrypLe express enzyme (ThermoFisher) was added to each well and incubated in CO2 incubator for 5 min to 10 min until the cells deattached from the surface. After addition of 20 µL of Defined Trypsin Inhibitor solution (ThermoFisher), cells were resuspended by pipetting and 150 µL of the suspension from each well were transferred to black Thermo Scientific™ Nunc MicroWell 96-Well Optical-Bottom Plates for fluorescence and absorbance measurements. The fluorescence was recorded at 485 nm excitation and 520 nm emission wavelengths in the plate reader (Synergy HTX, BioTek). The absorbance was recorded at 650 nm to measure the optical density of the cell suspension.
# (§5) The compound solution was prepared by weighing 3–5 mg of a purified compound and dissolving in DMSO at 10 mM concentration. The 1 mM compound stock in DMSO was prepared by taking 10 µL of 10 mM stock and adding to 90 µL DMSO. The 10 µM compound stock was prepared by taking 10 µL of 1 mM compound stock in DMSO and adding 990 µL of the FB medium (this stock contained 1% of DMSO). Then 80 nM compound solution was prepared by taking 10 µL of 10 µM solution and adding 1.24 mL of the FB medium and placed to the first Eppendorf tube. Then 300 µL of FB medium were added to the Eppendorf tubes 2 to 12. A serial dilution was performed by taking 300 µL of solution from tube 1 to 2, then from 2 to 3 and so on while mixing vigorously at each step. No solution was transferred to the last tube thus it contained only FB medium and no compound. Then 200 µL from 12 tubes were transferred to the 12 wells of cell culture-containing 12-well plate, starting from the lowest concentration.
# Application of fluorescently labeled ligand GZ19-32 to cancer cells expressing CAIX will stain the cells in dose-dependent manner. The fraction of saturation increases from 0 to 1. The fraction of bound GZ19-32 (f) is equal to the molar concentration of bound GZ19-32 per molar concentration of total available CAIX, the so-called total protein Pt . f=GZ19-32bound/Pt
# Upon GZ19-32 dosing, the observed fluorescence signal F can be modeled to change from the minimal background signal ( Fmin ) to maximal saturated value ( Fmax ): F=Fmin+Fmax-Fminf […]
# [4] = tested on: HeLa CAIX-KO and normoxia-grown WT HeLa cells; assay: Fluorescein-labeled compound dosing to CAIX-KO and normoxia-grown HeLa cells (non-specific binding); type: cell-based, human; conditions: micromolar concentration range, Fig. 9B, 9C
# Protocol: as §4, §5
# This equation was fit to the dosing curves of several fluorescently-labeled ligands to both the cells grown in hypoxia and in normoxia, both to the WT and CRISPR-Cas9 CAIX knockout cells. The cells bound both the GZ19-32 and GZ20-40 ligands that differed only in the length of the linker and both contained the same head-group. […] Furthermore, the ligands that had their sulfonamide amino group substituted with the methyl completely abandoned their capability of binding CAIX in this concentration region. The binding was also abolished for the CAIX-KO HeLa cells.
# T9 sequence (Q8N1Q1 whole entry): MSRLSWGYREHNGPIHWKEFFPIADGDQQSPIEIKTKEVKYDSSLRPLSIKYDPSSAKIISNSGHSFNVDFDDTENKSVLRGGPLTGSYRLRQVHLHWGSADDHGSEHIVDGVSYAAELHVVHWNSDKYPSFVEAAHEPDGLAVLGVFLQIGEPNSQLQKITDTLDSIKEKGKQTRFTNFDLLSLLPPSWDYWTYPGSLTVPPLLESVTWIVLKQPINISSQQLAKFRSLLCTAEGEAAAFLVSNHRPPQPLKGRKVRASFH
# T2 sequence (P35218 39-305): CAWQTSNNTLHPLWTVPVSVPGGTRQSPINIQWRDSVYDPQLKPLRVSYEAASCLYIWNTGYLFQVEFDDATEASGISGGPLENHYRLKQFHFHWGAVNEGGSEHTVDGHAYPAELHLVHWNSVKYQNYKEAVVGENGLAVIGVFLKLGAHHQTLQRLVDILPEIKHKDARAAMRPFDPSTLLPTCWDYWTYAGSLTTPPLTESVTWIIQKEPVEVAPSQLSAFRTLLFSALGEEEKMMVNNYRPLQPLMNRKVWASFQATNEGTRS
# T11 sequence (Q9Y2D0 34-317): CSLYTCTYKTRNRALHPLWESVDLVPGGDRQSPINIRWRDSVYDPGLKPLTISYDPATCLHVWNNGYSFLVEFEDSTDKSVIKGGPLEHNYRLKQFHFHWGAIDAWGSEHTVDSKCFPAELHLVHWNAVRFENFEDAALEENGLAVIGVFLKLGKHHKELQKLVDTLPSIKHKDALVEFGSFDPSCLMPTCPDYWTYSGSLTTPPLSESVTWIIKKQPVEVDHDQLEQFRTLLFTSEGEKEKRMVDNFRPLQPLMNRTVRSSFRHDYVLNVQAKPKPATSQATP
# T4 sequence (P07451 whole entry): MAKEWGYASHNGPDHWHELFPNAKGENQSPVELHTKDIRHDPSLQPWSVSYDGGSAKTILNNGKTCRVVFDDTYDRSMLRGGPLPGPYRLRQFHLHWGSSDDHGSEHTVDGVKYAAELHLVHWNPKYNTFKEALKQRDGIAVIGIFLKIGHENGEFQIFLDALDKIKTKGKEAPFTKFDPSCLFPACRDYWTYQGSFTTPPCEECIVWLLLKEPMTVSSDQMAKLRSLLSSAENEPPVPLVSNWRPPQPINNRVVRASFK
# T1 sequence (O43570 30-289 limits assumed): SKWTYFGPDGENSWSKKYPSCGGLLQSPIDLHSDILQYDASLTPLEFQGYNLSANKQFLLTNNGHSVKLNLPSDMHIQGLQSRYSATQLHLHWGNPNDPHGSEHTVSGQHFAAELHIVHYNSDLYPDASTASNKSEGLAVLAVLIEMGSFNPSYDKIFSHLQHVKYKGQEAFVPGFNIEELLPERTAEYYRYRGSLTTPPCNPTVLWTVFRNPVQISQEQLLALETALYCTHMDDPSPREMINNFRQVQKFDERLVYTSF
# T6 sequence (P22748 19-312): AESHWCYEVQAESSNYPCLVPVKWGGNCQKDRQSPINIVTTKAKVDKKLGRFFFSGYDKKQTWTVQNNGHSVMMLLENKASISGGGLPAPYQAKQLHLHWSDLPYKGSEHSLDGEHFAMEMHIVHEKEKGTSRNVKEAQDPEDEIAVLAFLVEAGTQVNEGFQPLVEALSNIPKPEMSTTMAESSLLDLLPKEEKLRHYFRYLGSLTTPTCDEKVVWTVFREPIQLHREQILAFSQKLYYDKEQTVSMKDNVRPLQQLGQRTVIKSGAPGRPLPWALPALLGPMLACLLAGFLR
# T5 sequence (Q9ULX7 20-278 limits assumed): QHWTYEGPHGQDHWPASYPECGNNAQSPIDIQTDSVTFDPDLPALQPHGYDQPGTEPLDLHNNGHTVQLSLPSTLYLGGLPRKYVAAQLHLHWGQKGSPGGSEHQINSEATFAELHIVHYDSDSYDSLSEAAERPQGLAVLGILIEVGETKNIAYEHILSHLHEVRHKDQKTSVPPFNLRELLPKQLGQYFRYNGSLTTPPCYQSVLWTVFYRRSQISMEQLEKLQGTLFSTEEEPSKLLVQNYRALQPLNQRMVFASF
# T3 sequence (P00915 whole entry): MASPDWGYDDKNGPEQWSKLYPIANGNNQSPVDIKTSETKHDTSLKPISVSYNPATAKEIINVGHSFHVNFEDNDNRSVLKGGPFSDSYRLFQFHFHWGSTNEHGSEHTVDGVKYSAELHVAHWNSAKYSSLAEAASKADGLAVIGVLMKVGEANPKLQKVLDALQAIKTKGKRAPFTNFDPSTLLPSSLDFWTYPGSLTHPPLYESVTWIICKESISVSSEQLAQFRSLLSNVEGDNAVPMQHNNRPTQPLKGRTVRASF
# T8 sequence (P23280 18-308): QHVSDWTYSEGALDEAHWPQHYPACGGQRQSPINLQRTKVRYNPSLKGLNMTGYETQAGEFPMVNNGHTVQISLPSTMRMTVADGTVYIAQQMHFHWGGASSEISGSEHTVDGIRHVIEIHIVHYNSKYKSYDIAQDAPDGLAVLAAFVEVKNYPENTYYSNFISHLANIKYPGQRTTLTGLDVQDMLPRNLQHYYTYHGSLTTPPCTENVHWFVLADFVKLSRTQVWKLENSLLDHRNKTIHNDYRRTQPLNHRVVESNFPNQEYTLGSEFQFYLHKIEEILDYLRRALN
# T10 sequence (P43166 whole entry): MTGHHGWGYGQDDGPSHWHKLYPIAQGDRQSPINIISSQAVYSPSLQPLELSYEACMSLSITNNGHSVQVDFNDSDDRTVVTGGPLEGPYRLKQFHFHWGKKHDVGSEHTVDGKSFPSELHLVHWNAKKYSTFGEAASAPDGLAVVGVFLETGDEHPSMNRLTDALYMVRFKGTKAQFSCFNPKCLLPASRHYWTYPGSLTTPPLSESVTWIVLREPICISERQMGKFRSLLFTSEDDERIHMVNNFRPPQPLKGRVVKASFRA
Kd (CAXII) [nM],Kd (CAVA) [nM],Kd (CAI) [nM],Kd (CAIII) [nM],Kd (CAXIV) [nM],Kd (CAIV) [nM],melting point [°C],Kd [1] [nM],Kd (CAVI) [nM],Kd (CAXIII) [nM],Kd (CAVII) [nM],Kd (CAVB) [nM],Kd (CAII) [nM],weaker binding to CAIX in A549 than HeLa cells [2] [times],binding to CAIX by TSA (in words) ([1]; recombinant CAIX),binding to hypoxia-grown HeLa cells in the nM concentration region [3],SMILES,non-specific binding to cells [4]
7,1000,500,6700,2.5,500,180 to 181,0.01,250,1,7,33,200,–,–,–,"NS(=O)(=O)c1c(F)c(F)c(S(=O)(=O)CCC(=O)NCCCC(=O)Nc2ccc3c(c2)C(=O)OC32c3ccc(O)cc3Oc3cc(O)ccc32)c(NC2CCCCCCC2)c1F [GZ20-40, 4-(3-((2-(cyclooctylamino)-3,5,6-trifluoro-4-sulfamoylphenyl)sulfonyl)propanamido)-N-(3',6'-dihydroxy-3-oxo-3H-spiro[isobenzofuran-1,9'-xanthen]-5-yl)butanamide]",–
–,6000,–,> 200000,–,–,–,–,10000,–,–,–,–,6,–,–,"NS(=O)(=O)c1ccc(NC(=O)Nc2ccc(F)cc2)cc1 [SLC-0111, 4-(3-(4-fluorophenyl)ureido)benzenesulfonamide, reference compound]",–
40,29,0.005,2500,25,140,175 to 176,1.7,140,1.7,2,20,1.7,–,medium affinity (nM range),did not bind,"NS(=O)(=O)c1c(F)c(F)c(S(=O)(=O)CCC(=O)Nc2ccc3c(c2)C(=O)OC32c3ccc(O)cc3Oc3cc(O)ccc32)c(F)c1F [GZ19-31, N-(3',6'-dihydroxy-3-oxo-3H-spiro[isobenzofuran-1,9'-xanthen]-5-yl)-3-((2,3,5,6-tetrafluoro-4-sulfamoylphenyl)sulfonyl)propanamide]",bound cells in the micromolar concentration range
> 100000,> 100000,> 100000,> 100000,> 100000,> 100000,181 to 182,> 100000,> 100000,> 100000,> 100000,> 100000,> 100000,–,–,–,"CS(=O)(=O)c1c(F)c(F)c(SCCC(=O)Nc2ccc3c(c2)C(=O)OC32c3ccc(O)cc3Oc3cc(O)ccc32)c(F)c1F [GZ19-33, N-(3',6'-dihydroxy-3-oxo-3H-spiro[isobenzofuran-1,9'-xanthen]-5-yl)-3-((2,3,5,6-tetrafluoro-4-(methylsulfonyl)phenyl)thio)propanamide]",bound cells in the micromolar concentration range
